In patent publication US9155740B2, “Compositions and methods for treatment and prevention of hyperuricemia related health consequences” (priority 2004, dated 2015):

What was measured:
fructose-fed rats [1] = test: Treatment of fructose-induced hyperuricemia with allopurinol; assay type: in vivo, rat; conditions: for body weight: treatment study, p=NS
Description: Treatment of fructose-induced hyperuricemia with allopurinol: Male Sprague-Dawley rats (150-200 g) were housed in standard conditions and fed control (n=7) or 60% fructose diet (Harlan, Madison, Wis., n=14) for 10 weeks. “Control diet” contains 46% carbohydrate, which is mainly composed of starch whereas the fructose diet contained 60% fructose as the carbohydrate. The caloric content of these diets are 3.1 kcal/g and 3.6 kcal/g, respectively. At 4 weeks, blood sample were obtained at 11 am in the morning after 4 h fasting. Half of the fructose-fed rats were administered allopurinol (AP, 150 mg/L in the drinking water) (Sigma, St. Louis, Mo.) for an additional 6 weeks to lower serum uric acid. Fresh drinking water containing allopurinol was replaced every 2 days. Rats were divided into 3 groups: Control; Fructose (Fr); and Fr+AP. At 10 weeks an oral glucose tolerance test was performed, in which rats were fasted overnight (16 hours), and then administered 1.5 g/kg OGTT (50% glucose solution) by gavage. Blood was sampled at 0, 30, 60, 120 min for blood glucose and serum insulin measurement. Rats were then sacrificed.
(§1) Measurements: Systolic blood pressure was assessed as the mean value of 3 consecutive measurements obtained in the morning using a tail-cuff sphygmomanometer (Visitech BP2000, Visitech Systems, Inc., Apex, N.C.). All animals were preconditioned for blood pressure measurements 1 wk before each experiment. Serum uric acid was measured by uricase method. Blood glucose was measured with the ONE TOUCH system (Johnson&Johnson, Milpitas, Calif.). Rat insulin was measured by ELISA (Crystal Chem. Inc., Chicago, Ill.). Insulin sensitivity index was calculated using the formula of Matsuda and DeFronzo (10,000/square root of [fasting glucose×fasting insulin]×[mean glucose×mean insulin during OGTT]), which is highly correlated (r=0.73, p<0.0001) with rate of whole-body glucose disposal during the euglycemic insulin clamp (Matsuda M and DeFronzo R A, Insulin sensitivity indices obtained from oral glucose tolerance testing: comparison with the euglycemic insulin clamp, Diabetes Care 22: 1462-1470, 1999). Serum lipids were measured with an autoanalyzer (VETAce, Alfa Wassermann Inc, West Caldwell, N.J.) or Triglyceride-SL assay kit (Diagnostic chemicals Limited, Charlottetown, PE, Canada).
(§2) Statistical analysis. All values presented are expressed as mean±SD and analyzed by one-way analysis of variance (ANOVA) or by unpaired Student's t test. Significance was defined as p<0.05.

fructose-fed rats [2] = test: Prevention of fructose-induced hyperuricemia with allopurinol; assay type: in vivo, rat
Method: […] Three groups (control, Fr, and Fr+AP; n=8 each) were designed for this prevention study. Body weight was measured every 2 weeks. Food consumption was measured for 3 days at 8 weeks.
as §1, §2

Male Sprague-Dawley rats = test: Oxonic acid-induced hyperuricemia in rats, serum uric acid, NOx and blood pressure; assay type: in vivo, rat
Method: Male Sprague-Dawley rats were housed in standard conditions and fed normal diets. Hyperuricemia was induced with an uricase inhibitor, oxonic acid (OA; 750 mg/kg/day), by gavage, with control rats receiving vehicle. Allopurinol (AP) was used to block hyperuricemia by placing AP in the drinking water (150 mg/L). Rats were divided into four groups: (1) Control, (2) AP only, (3) OA only, and (4) OA+AP. Systolic blood pressure was measured using a tail-cuff sphygmomanometer. The amount of drinking water consumed and changes in body weight were noted. Rats were sacrificed at one and seven days. Serum was analyzed for uric acid concentration and nitrites/nitrates (NOx) by chemiluminescence method. (Prabhakar SS: Inhibition of mesangial iNOS by reduced extracellular pH is associated with uncoupling of NADPH oxidation. Kidney Int 61:2015-2024, 2002). Statistical analysis between subgroups was performed using ANOVA.

fructose fed rats = test: 60% dextrose vs 60% fructose diet, pair-fed, lowering uric acid with benzbromarone; assay type: in vivo, rat; conditions: 4 weeks
Method: Comparison between 60% dextrose and 60% fructose on the development of metabolic syndrome and the effect of lowering uric acid with Benzbromarone: Rats were pair-fed with 60% dextrose diet or 60% fructose diet for 4 weeks, which are isocaloric. […] At 4 weeks, total food intake per animal was calculated from the food left over. Total food intake is the subtraction of the left-over food from total administered food (1425 g/rat/28days). In addition to the above two groups, a third group of fructose fed rats were administered BZ. Body weight was measured weekly. At 4 weeks, after 5 h fasting, insulin, triglyceride and uric acid were measured. All protocols were approved by the Animal Care Committee of the University of Florida.
as §1

[3] = test system: diabetic C57BL6 and eNOS KO mice; test: Streptozotocin diabetic C57BL6 and eNOS KO mice with insulin treatment; assay type: in vivo, mouse
Method: Experiments were performed following protocol approval by the Animal Care and Use Committee of the University of Florida (IACUC). C57B1/6J mice (C57BL6) and C57BL/6JNos3tm1Unc (eNOS KO mice) (Jackson Laboratory, Bar Harbor, Me.) aged 8 weeks were rendered diabetic with intraperitoneal injections of streptozotocin (STZ) (100 mg/kg/day for 2 consecutive days) freshly dissolved in 0.1M citrate buffer (pH 4.5). Development of diabetes (defined by blood glucose greater than 250 mg/dL) was verified 1 week after the first STZ injection with ONE TOUCH system (Johnson & Johnson, Milpitas, Calif.). For blood sugar control, a single insulin pellet (Linshin Canada Inc, Ontario, Canada) was implanted subcutaneously for 5 months. Blood glucose was monitored every 2 weeks and if the fasting blood glucose was >200 mg/dl, an additional insulin pellet was inserted. Mice were housed in the animal care facility with 12-hour light/dark cycle and allowed free access to food and water. Body weight was recorded monthly. At 3 and 5 months, mice were euthanized for histological analysis. A total of 6 groups were examined with 10 mice for each group at starting points. Non-diabetic (non-DM), diabetic (DM), and diabetic mice (C57BL6 and eNOS KO) with insulin treatment (DMIns) were examined. Systolic blood pressure was assessed as the mean value of 5-10 consecutive measurements obtained in the morning using a tail-cuff sphygmomanometer (Visitech BP2000, Visitech Systems, Inc., Apex, N.C.). BUN was measured by BUN assay (Diagnostic chemicals limited, PE, Canada). Urine in bladder was obtained for urinary albumin excretion at sacrifice. Albumin-to-Creatinine ratio was measured with Albuwell M (Exocell Inc., Philadelphia, Pa.) and Liquid Creatinine Assay (Bioquant, San Diego, Calif.), respectively.
Kidneys were fixed in Fekete's fixative (mixture of ethanol, distilled water, 37% formalin and glacial acetic acid), and embedded in paraffin. 2-μm sections were stained with the periodic acid-Schiff reagent (PAS) or the periodic acid-methenamine silver (PAM) and counterstained with hematoxylin. Indirect immunoperoxidase staining was performed using antibodies to the endothelial antigen, thrombomodulin (TM) (Yuzawa Y, Brentjens J R, Brett J, Caldwell P R, Esposito C, Fukatsu A, Godman G, Stern D, Andres G: Antibody-mediated redistribution and shedding of endothelial antigens in the rabbit. J Immunol 150: 5633-5646, 1993) or CD34 (BD Pharmingen, San Jose, Calif.) (Fina L, Molgaard H V, Robertson D, Bradley N J, Monaghan P, Delia D, Sutherland D R, Baker M A, Greaves M F: Expression of the CD34 gene in vascular endothelial cells. Blood 75: 2417-2426, 1990), and to vascular smooth muscle cells with anti-smooth muscle actin (Abcam, Cambridge, Mass.). To detect endothelial cell proliferation, double immunostaining was performed with an antibody to the […], Ki67 (Abcam, Cambridge, Mass.) and thrombomodulin. Color was developed using DAB as a chromogen. In double staining, Bjoran Purple (BioCare Medical, Concord, Calif.) was used for thrombomodulin.
All quantifications were performed in a blinded fashion. Using coronal sections of the kidney, all glomeruli (100-200 of glomeruli per each animal) were examined. Glomerular mesangial expansion, mesangiolysis, and nodular lesions were evaluated. The percentage of mesangiolysis was calculated as the number of glomeruli with mesangiolysis divided by that of total glomeruli. Arteriolar morphology was assessed by indirect peroxidase immunostaining for alpha-smooth muscle actin. […] Afferent arteriolar wall thickness was measured by computer image analysis. For each arteriole, the outline of the vessel and its internal lumen (excluding the endothelium) were generated by using computer analysis to calculate the total wall area (outline-inline) in a minimum of 12 arterioles. Vessels that were cross-sectioned or not sectioned transversally, providing an asymmetrical wall, were excluded from the present study. […]

[4] = test system: cultured bovine endothelial cells; conditions: cited from earlier work
[5] = test system: Rat Aortic Artery (AA) segments; test: Acetylcholine-induced vasorelaxation of rat aortic artery segments; conditions: uric acid 0-15 mg/dl; acetylcholine 5 μM; U-46619 0.5 μM
Method: Vasorelaxation of rat Aortic Artery (AA) segments: Rat AA segments (1-0.5 mm diameter×3-4 mm length) were isolated from the 2- to 3- month-old rats, AA segments were suspended in individual organ chambers (Radnoti Four-Unit Tissue Bath System) with 5 ml in Earl's solution, oxygenated with 95% O2 and 5% CO2 at 37° C. After 1 hr equilibration of resting force of 1.5 g, vascular smooth muscle cell or endothelium integrity in this AA segment was confirmed by monitoring 0.5 μM U-46619 (a thromboxane A2 mimetic, sigma)-mediated AA contraction or acetylcholine (5 μM)-mediated vasodilation, respectively. After washing several times, the segments were incubated with various concentration of uric acid (0-15 mg/dl ) in organ bath chamber for 30 min. Stable construction was induced by 0.5 μM U-46619 for 10 min prior to acetylcholine-induced vasorelaxation. The vascular tensions were continuously monitored with an isometric force transducer (Harvard Apparatus, Holliston, Mass.). To standardize the data, U-46619-induced stable increase in vascular tone was set as 100%.

endothelial function = conditions: infusion into forearm vein, immediately after infusion; cited from earlier work
[6] = wildtype and eNOS knockout mice

O=C(CO)[C@@H](O)[C@H](O)[C@H](O)CO [Fr, fructose]
body weight (fructose-fed rats [1]; 10 weeks): 522 ± 57 g | final weight (fructose-fed rats [2]; prevention study, 8 weeks): 456 ± 24 g

Oc1ncnc2[nH]ncc12 [Allopurinol, allopurinol]
systolic blood pressure (Male Sprague-Dawley rats; 7 days, OA vs OA/AP, p=NS): 147±11 mm Hg | change in NOx concentration (Male Sprague-Dawley rats; rats treated with AP alone): did not show a significant change | change in serum UA (Male Sprague-Dawley rats; rats treated with AP alone): did not show a significant change | serum uric acid (fructose-fed rats [1]; AP 150 mg/L drinking water for 6 weeks from week 4 of fructose diet): effective at lowering uric acid | insulin sensitivity (index) (fructose-fed rats [1]; OGTT at 10 weeks): improved insulin sensitivity | hypertriglyceridemia (serum triglycerides) (fructose-fed rats [1]; fructose-fed rats): abolished | urinary excretion of uric acid (fructose-fed rats [1]; fructose-fed rats, 9 weeks): prevented the reduced excretion of uric acid | fasting hyperinsulinemia (fructose-fed rats [1]; fructose-fed rats, 10 weeks): reversed | systolic blood pressure (fructose-fed rats [1]; fructose-fed rats, remained higher than control): significantly reduced | postprandial hyperinsulinemia (fructose-fed rats [1]; oral glucose tolerance test at 10 weeks): partially but significantly lower | body weight (fructose-fed rats [1]; 10 weeks): 474 ± 37 g | elevation of uric acid by fructose diet (fructose-fed rats [2]; allopurinol given simultaneously with fructose diet, over the 6 week period): prevented | fasting insulin levels (fructose-fed rats [2]; compared to fructose-fed rats, 8 weeks): significantly lower | development of hypertriglyceridemia (fructose-fed rats [2]; prevention study): completely prevented | final weight (fructose-fed rats [2]; prevention study, 8 weeks): 426 ± 26 g

CCc1oc2ccccc2c1C(=O)c1cc(Br)c(O)c(Br)c1 [benzbromarone, Benzbromarone]
hyperinsulinemia (fructose fed rats): significantly improved | hypertriglyceridemia (fructose fed rats): significantly improved | hyperuricemia (fructose fed rats): significantly improved

O=C(O)c1nc(=O)[nH]c(=O)[nH]1 [OA, oxonic acid]
reduction of serum NOx in hyperuricemic rats (Male Sprague-Dawley rats; at both 1 day and 7 days, vs control): 40-50%

insulin
development of mesangial expansion ([3]; 3 and 5 months): blocked | development of mesangiolysis ([3]; 3 and 5 months): blocked | development of the nodular lesions ([3]; 3 and 5 months): blocked | blood glucose levels ([3]; both wildtype and eNOS knockout mice): significant improvements | up-regulation of VEGF mRNA expression ([3]; diabetic C57BL6 and eNOS KO mice, whole kidney): blocked | increase in inner lumen size of afferent arteriole ([3]; diabetic eNOS KO mice): blocked | increase in endothelial cell proliferation and number ([3]; diabetic mice, renal cortex): largely corrected | blood pressure ([3]; eNOS knockout mice): significantly improved | survival ([3]; eNOS knockout mice, 5 months): significantly improved | development of proteinuria [3, 6]: prevented | development of renal dysfunction [3, 6]: prevented | development of renal hypertrophy [3, 6]: prevented

O=c1[nH]c(=O)c2[nH]c(=O)[nH]c2[nH]1 [uric acid]
NO levels [4]: potently reduce NO levels | vasorelaxation of aortic arterial rings in response to acetylcholine [5]: dose-dependently blocked | endothelial function measured by brachial artery reactivity (endothelial function): does not impair endothelial function
